Earlier results in US20100279989A1, “ORAL CONTRACEPTION WITH TRIMEGESTONE” (GRÜNENTHAL GMBH, priority 2005, published 2010).

Tested on: ovulation
Settings: p.o.

C[C@H](O)C(=O)[C@@]1(C)CC[C@H]2[C@@H]3CCC4=CC(=O)CCC4=C3CC[C@@]21C [trimegestone, 17β-[(S)-2-hydroxypropanoyl]-17α-methyl-estra-4,9-dien-3-one]
ovulation inhibition dose: 0.5 mg per day
